In PubChem BioAssay (NCI):
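Growth conditions: 96-well plates. Treatment: test compound, 48 hours, 5 concentrations. Analysis: linear interpolation between bracketing concentrations; unreached endpoints set to highest concentration. The concentration for 50% growth inhibition is given as GI50. TGI: concentration producing complete growth inhibition.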

Legend:
Assay in all cases: NCI tumour cell line growth inhibition, 48 h
SNB-75 CNS = tested on: SNB-75 CNS
SF-539 CNS = tested on: SF-539 CNS
SK-OV-3 ovarian = tested on: SK-OV-3 ovarian
MOLT-4 leukemia = tested on: MOLT-4 leukemia
IGROV1 ovarian = tested on: IGROV1 ovarian
UACC-62 melanoma = tested on: UACC-62 melanoma
OVCAR-4 ovarian = tested on: OVCAR-4 ovarian
SNB-19 CNS = tested on: SNB-19 CNS
HS 578T breast = tested on: HS 578T breast
M14 melanoma = tested on: M14 melanoma

SMILES	GI50 (SNB-75 CNS) [µM]	TGI (SNB-75 CNS) [µM]	GI50 (SF-539 CNS) [µM]	TGI (SF-539 CNS) [µM]	GI50 (SK-OV-3 ovarian) [µM]	TGI (SK-OV-3 ovarian) [µM]	GI50 (MOLT-4 leukemia) [µM]	TGI (MOLT-4 leukemia) [µM]	GI50 (IGROV1 ovarian) [µM]	TGI (IGROV1 ovarian) [µM]	GI50 (UACC-62 melanoma) [µM]	TGI (UACC-62 melanoma) [µM]	GI50 (OVCAR-4 ovarian) [µM]	TGI (OVCAR-4 ovarian) [µM]	GI50 (SNB-19 CNS) [µM]	TGI (SNB-19 CNS) [µM]	GI50 (HS 578T breast) [µM]	TGI (HS 578T breast) [µM]	TGI (M14 melanoma) [µM]	GI50 (M14 melanoma) [µM]
CCc1ccc(Nc2cc(C)nc3nc(C)nn23)cc1	35.6	> 100	> 100	> 100	> 100	> 100	33.3	> 100	61.2	> 100	37.7	> 100	27.7	> 100	53.4	> 100	39.3	> 100		
BrC12c3ccccc3Sc3ccccc3C1(Br)c1ccccc12 (stereo not drawn)		95.8		34.6		> 100		35.8		> 100		46.6		> 100		> 100			28.8	
CC(Oc1ccc2cc(C(=O)c3ccccc3)c(=O)oc2c1)C(=O)O (stereo not drawn)		> 100		> 100		> 100		> 100		> 100		> 100		> 100		> 100			> 100	
CC(=O)OCC1OC(Sc2ccccn2)C=CC1OC(C)=O (stereo not drawn)		> 100		> 100		> 100		> 100		> 100		> 100		> 100		> 100			> 100	
COc1cc(OC)cc(-c2cncn2-c2ccc(-c3nc4cc(OC)c(OC)c(OC)c4s3)cc2)c1	15	42.7	22	> 100	49.9	> 100	4.1	> 100	9.6	> 100	13.8	> 100	6.67	> 100	19.7	> 100	20.9	> 100		
COc1cc(-c2cc(CCC(=O)Nc3ccccc3[N+](=O)[O-])n(-c3ccc([N+](=O)[O-])cc3[N+](=O)[O-])n2)ccc1O	> 10	> 100	> 100	> 100	> 100	> 100	> 100	> 100	> 100	> 100	> 10	> 100	> 100	> 100	> 100	> 100			> 100	> 100
Cc1nc2cc(N)c(Cl)cc2[nH]1		> 100				> 100		> 100		> 100		> 100				> 100		> 100	> 100	
CC(O[Si](C)(C)C)C1C=CC(C)n2c(=O)n(-c3ccccc3)c(=O)n21 (stereo not drawn)				> 100		> 100		> 100		> 100		> 100		> 100		> 100			> 100	
CC1=C(c2cc(C(=O)Nc3nccs3)nc(NC#N)n2)Sc2ccccc2N1		> 100		> 100				> 100		> 100		> 100		> 100		> 100			> 100	
CC1(C)OC(=O)C(=C2CC(c3ccccc3)c3ccccc32)C(=O)O1 (stereo not drawn)		> 100		> 100		> 100		> 100		> 100				> 100		> 100			> 100	
O=C(CN1CCN(c2ccc(Cl)cc2)CC1)N1CCN(c2nnc(-c3ccccc3)c(-c3ccccc3)n2)CC1	7.56	> 100	7.65	> 100	75.7	> 100	2.41	> 100	42.9	> 100			1.75	> 100	> 100	> 100	51.6	> 100	> 100	> 100
Cc1cc2c(c(N)c1C)C(=O)c1ccccc1C2=O		39.8		31.5		49.2		> 100		> 100		35.5		41.4		> 100			> 100	
O=C1C(Cl)=C(Nc2cccc(O)c2)C(=O)N1c1cccc(Cl)c1Cl					32.9	> 100	2.31	11.8	5.96	23.4	14.6	34	15.6	40.5	19.1	82.9	1.71	14.4	31.7	14.8
CC[C@]12CCCN3CC[C@]4(C(=C(C(=O)OC)C1)Nc1ccccc14)[C@@H]32	13.6	61.9	18.2	37.9			18.8	43.7	16.8	45.6	11.4	31	15.4	54.8	22.9	66.2	17.3	76.1	51.7	20.5
Cc1nn(-c2ccc(Br)cc2)c(C)c1CC(=O)c1cc(O)ccc1O	10.8	31.1	11.5	28			3.26	> 50	17.2	> 50	4.24	11.4	15.9	> 50	15	> 50	22.7	> 50	> 50	29.6
CCC/C(=N\NC(=O)c1cc2ccccc2cc1O)C(CC)C(=O)CCC(=O)N(Cc1ccccc1)Cc1ccccc1 (stereo not drawn)		> 100		> 100		> 100		> 100		> 100		70		> 100		> 100			> 100	
COC(=O)NN1C(C)=C(C(=O)OC)C2(CCOC2=O)C1(C)O (stereo not drawn)				> 100		> 100		> 100		> 100		> 100		> 100		> 100			> 100	
c1ccc(C2N3CCCCC3[C@@H]3c4[nH]c5ccccc5c4CCN23)cc1 (stereo partly drawn)		> 100		> 100		> 100		> 100		> 100		> 100		75.6		> 100			> 100	
